Results as given in the supplement of paper PMC10307832.

Experiments:
Assay in all cases: relative viability (nuclei count vs DMSO), 5 days (fraction); higher = more cells survive
HCC-366 = system: HCC-366
Method in brief: (§1)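 One day after seeding in 1536-well plates, lung cancer cell lines were dosed by pin tool. Dosing was either single-drug or a fixed anchor-drug dose plus five library-drug doses (not always all listed) in √10 steps. After 5 days, nuclei were stained in one fix-and-stain step and counted on 4× images, and relative viability is the nuclei count of treated wells over that of vehicle wells, given as the median of duplicate plates.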

LCLC-97TM1 = system: LCLC-97TM1
Method in brief: as §1

NCI-H2126 = system: NCI-H2126
Method in brief: as §1

LU99A = system: LU99A
Method in brief: as §1

HCC-15 = system: HCC-15
Method in brief: as §1

LC-2-ad = system: LC-2-ad
Method in brief: as §1

NCI-H2170 = system: NCI-H2170
Method in brief: as §1

COR-L23 = system: COR-L23
Method in brief: as §1

NCI-H2087 = system: NCI-H2087
Method in brief: as §1

LXF-289 = system: LXF-289
Method in brief: as §1

PC-14 = system: PC-14
Method in brief: as §1

Structure (SMILES): O=c1[nH]c2ccccc2n1C1CCN(CCCC(c2ccc(F)cc2)c2ccc(F)cc2)CC1 [Pimozide] + Cc1nc(Nc2ncc(C(=O)Nc3c(C)cccc3Cl)s2)cc(N2CCN(CCO)CC2)n1 [Dasatinib] (partner 0.075 µM)
- relative viability (HCC-366; first compound 0.253 µM): 0.644
- relative viability (HCC-366; first compound 0.8 µM): 0.625
- relative viability (HCC-366; first compound 2.53 µM): 0.615
- relative viability (HCC-366; first compound 8 µM): 0.714
- relative viability (LCLC-97TM1; first compound 0.08 µM): 0.94
- relative viability (LCLC-97TM1; first compound 0.253 µM): 0.811
- relative viability (LCLC-97TM1; first compound 0.8 µM): 0.797
- relative viability (LCLC-97TM1; first compound 2.53 µM): 0.818
- relative viability (LCLC-97TM1; first compound 8 µM): 0.626
- relative viability (NCI-H2126; first compound 0.08 µM): 0.687
- relative viability (NCI-H2126; first compound 0.253 µM): 0.548
- relative viability (NCI-H2126; first compound 0.8 µM): 0.568
- relative viability (NCI-H2126; first compound 2.53 µM): 0.607
- relative viability (NCI-H2126; first compound 8 µM): 0.605
- relative viability (LU99A; first compound 0.08 µM): 0.539
- relative viability (LU99A; first compound 0.253 µM): 0.527
- relative viability (LU99A; first compound 0.8 µM): 0.531
- relative viability (LU99A; first compound 2.53 µM): 0.459
- relative viability (LU99A; first compound 8 µM): 0.459
- relative viability (HCC-15; first compound 0.08 µM): 0.651
- relative viability (HCC-15; first compound 0.253 µM): 0.577
- relative viability (HCC-15; first compound 0.8 µM): 0.551
- relative viability (HCC-15; first compound 2.53 µM): 0.565
- relative viability (HCC-15; first compound 8 µM): 0.495
- relative viability (LC-2-ad; first compound 0.08 µM): 0.571
- relative viability (LC-2-ad; first compound 0.253 µM): 0.518
- relative viability (LC-2-ad; first compound 0.8 µM): 0.447
- relative viability (LC-2-ad; first compound 2.53 µM): 0.548
- relative viability (LC-2-ad; first compound 8 µM): 0.493
- relative viability (NCI-H2170; first compound 0.08 µM): 0.432
- relative viability (NCI-H2170; first compound 0.253 µM): 0.475
- relative viability (NCI-H2170; first compound 0.8 µM): 0.627
- relative viability (NCI-H2170; first compound 2.53 µM): 0.555
- relative viability (NCI-H2170; first compound 8 µM): 0.599
- relative viability (COR-L23; first compound 0.08 µM): 0.58
- relative viability (COR-L23; first compound 0.253 µM): 0.468
- relative viability (COR-L23; first compound 0.8 µM): 0.53
- relative viability (COR-L23; first compound 2.53 µM): 0.49
- relative viability (COR-L23; first compound 8 µM): 0.455
- relative viability (NCI-H2087; first compound 0.08 µM): 0.905
- relative viability (NCI-H2087; first compound 0.253 µM): 0.724
- relative viability (NCI-H2087; first compound 2.53 µM): 0.642
- relative viability (NCI-H2087; first compound 8 µM): 0.672
- relative viability (LXF-289; first compound 0.08 µM): 0.236
- relative viability (LXF-289; first compound 0.253 µM): 0.277
- relative viability (LXF-289; first compound 0.8 µM): 0.241
- relative viability (LXF-289; first compound 2.53 µM): 0.205
- relative viability (LXF-289; first compound 8 µM): 0.226
- relative viability (PC-14; first compound 0.08 µM): 0.027
- relative viability (PC-14; first compound 0.253 µM): 0.241
- relative viability (PC-14; first compound 0.8 µM): 0.272
- relative viability (PC-14; first compound 2.53 µM): 0.306
- relative viability (PC-14; first compound 8 µM): 0.18
